PubChem BioAssay (NCI)
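Where inhibition never reached the appropriate level, the endpoint shown equals the highest concentration tested. Otherwise, values were interpolated linearly from a five-concentration, 48-hour dose response in 96-well plates. GI50 = concentration required for 50% inhibition of growth. At the TGI there is no net growth.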

Legend:
Assay in all cases: inhibition of tumour cell growth, NCI panel, 48 h
[1] = tested on: 786-0 renal
[2] = tested on: A498 renal
[3] = tested on: A549 NSCLC
[4] = tested on: ACHN renal
[5] = tested on: BT-549 breast
[6] = tested on: CAKI-1 renal
[7] = tested on: CCRF-CEM leukemia
[8] = tested on: COLO 205 colon
[9] = tested on: DU-145 prostate
[10] = tested on: EKVX NSCLC
[11] = tested on: HCC-2998 colon
[12] = tested on: HCT-116 colon
[13] = tested on: HCT-15 colon
[14] = tested on: HL-60(TB) leukemia
[15] = tested on: HOP-62 NSCLC
[16] = tested on: HOP-92 NSCLC
[17] = tested on: HS 578T breast
[18] = tested on: HT29 colon
[19] = tested on: IGROV1 ovarian
[20] = tested on: K-562 leukemia
[21] = tested on: KM12 colon
[22] = tested on: LOX IMVI melanoma
[23] = tested on: M14 melanoma
[24] = tested on: MALME-3M melanoma
[25] = tested on: MCF7 breast
[26] = tested on: MDA-MB-231 breast
[27] = tested on: MDA-MB-435
[28] = tested on: MOLT-4 leukemia
[29] = tested on: NCI-H226 lung
[30] = tested on: NCI-H23 lung

Work on `COc1ccc(-c2ccc(/C=C/C(=O)NO)cc2)cc1` yielded a GI50 [1] of 990 nM, a TGI [1] of 3790 nM and a GI50 [2] of 1400 nM. For the same compound, the TGI [2] was 3760 nM, the GI50 [3] was 317 nM and the TGI [3] was 6140 nM. The GI50 [4] was 1070 nM, the TGI [4] was 4480 nM and the GI50 [5] was 1530 nM. It also gave a TGI [5] of 25900 nM, a GI50 [6] of 1420 nM and a TGI [6] of 6110 nM. The GI50 [7] was 48.1 nM, the TGI [7] was over 100000 nM and the GI50 [8] was 2340 nM. For the same compound, the TGI [8] was 10100 nM, the GI50 [9] was 394 nM and the TGI [9] was 4450 nM. The GI50 [10] was 2230 nM, the TGI [10] was 12900 nM and the GI50 [11] was 662 nM. For the same compound, the TGI [11] was 7920 nM, the GI50 [12] was 451 nM and the TGI [12] was 11400 nM. It also gave a GI50 [13] of 468 nM, a TGI [13] of 58700 nM and a GI50 [14] of 269 nM. For the same compound, the GI50 [15] was 1310 nM, the TGI [15] was 3110 nM and the GI50 [16] was 1190 nM. For the same compound, the TGI [16] was 4980 nM, the GI50 [17] was 3150 nM and the TGI [17] was 56300 nM. For the same compound, the GI50 [18] was 3560 nM, the TGI [18] was over 100000 nM and the GI50 [19] was 768 nM. The TGI [19] was 9660 nM, the GI50 [20] was 2390 nM and the TGI [20] was over 100000 nM. The GI50 [21] was 1110 nM, the TGI [21] was over 100000 nM and the GI50 [22] was 417 nM. The TGI [22] was 2610 nM, the GI50 [23] was 1450 nM and the TGI [23] was 7640 nM. It also gave a GI50 [24] of 650 nM, a TGI [24] of 11800 nM and a GI50 [25] of 639 nM. For the same compound, the TGI [25] was 19200 nM, the GI50 [26] was 1170 nM and the TGI [26] was 13400 nM. It also gave a GI50 [27] of 2120 nM, a TGI [27] of over 100000 nM and a GI50 [28] of 375 nM. It also gave a GI50 [29] of 1090 nM, a TGI [29] of 4390 nM and a GI50 [30] of 1530 nM.
